From US20230312550A1, “N-(2-(4-CYANOTHIAZOLIDIN-3-YL)-2-OXOETHYL)-QUINOLINE-4-CARBOXAMIDES” (AstraZeneca AB, priority 2020, published 2023)
Values after ≈ are worked out from the molar mass of the structure shown.

Legend:
[1] = Metabolic stability in rat hepatocytes (rHep); settings: n = 1 or geometric mean of n = 2-3
hFAP (M39-A757) = hFAP (M39-A757) (Homo sapiens (Human), UniProt Q12884); assay: hFAP binding assay (surface plasmon resonance); settings: SPR, 20° C.; for hFAP Binding assay k(off) / hFAP Binding assay k(on): single cycle kinetics; for Kd: n = 1 or geometric mean n = 2-4
hFAP (M39-A757), sequence (Q12884 39-757): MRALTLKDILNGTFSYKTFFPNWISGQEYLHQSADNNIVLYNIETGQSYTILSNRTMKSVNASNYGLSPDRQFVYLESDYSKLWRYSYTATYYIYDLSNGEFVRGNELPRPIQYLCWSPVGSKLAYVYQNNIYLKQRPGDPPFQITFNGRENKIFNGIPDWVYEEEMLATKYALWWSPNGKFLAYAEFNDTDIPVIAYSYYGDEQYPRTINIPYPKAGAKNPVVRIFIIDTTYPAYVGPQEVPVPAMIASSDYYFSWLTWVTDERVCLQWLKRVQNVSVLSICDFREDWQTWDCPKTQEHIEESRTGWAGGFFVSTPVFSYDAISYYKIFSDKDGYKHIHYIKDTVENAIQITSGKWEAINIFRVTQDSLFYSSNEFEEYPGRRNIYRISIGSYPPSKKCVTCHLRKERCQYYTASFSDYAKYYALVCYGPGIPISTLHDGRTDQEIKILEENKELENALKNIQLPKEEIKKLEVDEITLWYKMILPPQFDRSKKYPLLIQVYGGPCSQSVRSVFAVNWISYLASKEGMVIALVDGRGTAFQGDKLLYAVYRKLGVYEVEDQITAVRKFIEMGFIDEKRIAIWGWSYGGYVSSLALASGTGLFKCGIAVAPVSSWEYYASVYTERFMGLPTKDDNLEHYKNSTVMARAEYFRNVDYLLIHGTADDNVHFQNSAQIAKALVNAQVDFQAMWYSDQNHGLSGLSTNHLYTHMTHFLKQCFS
Experimental: Compounds were tested in a direct binding assay using 8K surface plasmon resonance biosensor (GE Healthcare) at 20° C. Immobilization of hFAP (M39-A757) on a CMD200M sensor chip (Xantec) was performed using standard amine coupling procedure in immobilization buffer (10 mM HEPES, 150 mM NaCl, 0.05% Tween20, pH 7.4). The surface was washed with 10 mM NaOH, 1M NaCl before being activated with EDC/NHS (GE Healthcare), followed by immobilization of hFAP (in 10 mM Acetate pH 5.0). Finally, the surface was deactivated by ethanolamine. Immobilization levels of hFAP were around 4000-6000 RU. The reference spot was treated as described, omitting the injection of hFAP. Compound concentration series were injected over the immobilized protein in increasing concentrations (2-500 nM) using single cycle kinetics in running buffer (20 mM TRIS, 150 mM NaCl, 0.05% Tween20, 1% DMSO, pH 7.4). Interaction models were fitted globally to the experimental traces, enabling determination of kon, koff and Kd.

[2] = Metabolic stability in human liver microsomes (HLM); settings: human
Experimental: Metabolic stability in HLM was measured as described in J Comput Aided Mol Des 2015, 29, 795.

FAP = FAP (Homo sapiens (Human), UniProt Q12884); assay: hFAP inhibition assay; type: biochemical; settings: hFAP […], Ala-Pro-AMC 20 μM; n = 1 or geometric mean n = 2-3
FAP, sequence (Q12884 38-760): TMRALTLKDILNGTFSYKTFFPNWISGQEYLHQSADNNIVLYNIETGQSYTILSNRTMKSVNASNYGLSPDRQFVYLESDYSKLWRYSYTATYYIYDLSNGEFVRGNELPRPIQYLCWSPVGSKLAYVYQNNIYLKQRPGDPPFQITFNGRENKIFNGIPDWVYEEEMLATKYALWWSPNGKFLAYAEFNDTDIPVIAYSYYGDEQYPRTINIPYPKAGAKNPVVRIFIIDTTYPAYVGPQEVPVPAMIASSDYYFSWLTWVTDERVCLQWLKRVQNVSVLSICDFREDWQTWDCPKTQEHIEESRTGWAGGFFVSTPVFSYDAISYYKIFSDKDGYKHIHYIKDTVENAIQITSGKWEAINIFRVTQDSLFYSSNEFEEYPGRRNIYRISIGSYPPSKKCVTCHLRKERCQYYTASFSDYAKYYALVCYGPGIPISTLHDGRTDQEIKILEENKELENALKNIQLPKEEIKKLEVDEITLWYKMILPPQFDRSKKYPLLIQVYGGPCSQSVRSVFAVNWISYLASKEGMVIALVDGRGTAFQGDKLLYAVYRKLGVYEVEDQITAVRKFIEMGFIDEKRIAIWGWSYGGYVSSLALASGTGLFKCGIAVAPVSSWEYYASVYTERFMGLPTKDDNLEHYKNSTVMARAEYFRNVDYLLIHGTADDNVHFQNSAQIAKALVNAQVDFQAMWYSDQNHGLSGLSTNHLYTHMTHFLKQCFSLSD
Experimental: 384 low volume black plates (Greiner #784076) were used. 4 μL, 0.48 nM enzyme solution (100 mM Tris HCl, 100 mM NaCl, 0.05% Chaps, pH 7.4) was added to 40 nL compounds (in DMSO) at 10 CR, 3 fold dilution series from 50 μM FAC. Plates were incubated for 15 min at rt in dark. 4 μL, 40 μM substrate solution (100 mM Tris HCl, 100 mM NaCl, 0.05% Chaps, pH 7.4) was added to each well. Plates were centrifuged at 1000 rpm and incubated for 30 min at rt in dark. The plates were read on a PHERAstar® reader with excitation 340 nm and emission 460 nm. Data were analyzed in Genedata Screener®. IC50 values were determined by plotting % inhibition versus log compound concentration and using a one site dose response model.

Kinetic solubility = settings: kinetic from dmso stock
Experimental: Kinetic solubility was measured as described in Comput Aided Mol Des 2015, 29, 795.

[3] = biological target: human Fibroblast activation protein alpha (hFAP) (Homo sapiens (Human), UniProt Q12884); assay: hFAP inhibition assay (tight binders); type: biochemical; settings: Ala-Pro-AMC 20 μM, n = 1 or geometric mean n = 2-6; also: hFAP 2.4 pM
human Fibroblast activation protein alpha (hFAP), sequence (Q12884 38-760): as above
Experimental: The plates were read on a PHERAstar® reader with excitation 340 nm and emission 460 nm. Data were analyzed in Genedata Screener®. IC50 values were determined by plotting % inhibition versus log compound concentration and using a one site dose response model.

[4] = biological target: Prolyl endopeptidase, Prolyl Oligopeptidase (hPREP) (Homo sapiens (Human), UniProt P48147); assay: hPrep inhibition assay; type: biochemical; settings: hPREP 0.6 nM, Z-Gly-Pro-amino-methylcoumarin 50 μM; read-out: PREP IC50
Prolyl endopeptidase, Prolyl Oligopeptidase (hPREP), sequence (P48147 whole entry): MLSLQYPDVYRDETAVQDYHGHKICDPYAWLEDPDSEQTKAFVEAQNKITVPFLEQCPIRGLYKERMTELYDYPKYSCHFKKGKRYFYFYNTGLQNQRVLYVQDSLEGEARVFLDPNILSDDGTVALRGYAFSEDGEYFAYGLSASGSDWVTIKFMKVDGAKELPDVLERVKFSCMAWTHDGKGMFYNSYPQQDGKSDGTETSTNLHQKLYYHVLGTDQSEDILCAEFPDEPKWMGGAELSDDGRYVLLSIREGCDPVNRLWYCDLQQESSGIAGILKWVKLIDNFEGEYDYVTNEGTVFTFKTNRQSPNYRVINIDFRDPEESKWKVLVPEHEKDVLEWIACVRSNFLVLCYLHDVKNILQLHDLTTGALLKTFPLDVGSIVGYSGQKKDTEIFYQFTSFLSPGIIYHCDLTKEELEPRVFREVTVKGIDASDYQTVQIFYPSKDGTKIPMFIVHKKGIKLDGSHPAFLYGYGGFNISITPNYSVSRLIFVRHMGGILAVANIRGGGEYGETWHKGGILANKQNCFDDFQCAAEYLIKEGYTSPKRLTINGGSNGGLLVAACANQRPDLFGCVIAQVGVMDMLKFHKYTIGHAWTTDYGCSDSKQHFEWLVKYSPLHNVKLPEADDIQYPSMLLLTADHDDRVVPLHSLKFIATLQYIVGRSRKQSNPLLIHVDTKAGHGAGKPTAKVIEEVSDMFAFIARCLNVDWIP
Method in brief: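 Recombinant human PREP at 0.6 nM final with Z-Gly-Pro-AMC substrate at 50 μM final in Tris-HCl pH 7.5, NaCl, Triton X-100, glutathione; 15 min rt preincubation then 20 min rt reaction in dark. AMC fluorescence (ex 340/em 460 nm); IC50 from one-site dose-response fit of % inhibition.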

[5] = HLM CLint, n = 1 or average of n = 2-3
[6] = Solubility, kinetic solubility, n = 1 or average of n = 2-3

| SMILES | rHep CLint [1] | hFAP Binding assay k(off) (hFAP (M39-A757)) | hFAP Binding assay k(on) (hFAP (M39-A757)) | Kd (hFAP (M39-A757)) | microsomal CLint [2, 5] | IC50 (FAP) | solubility (Kinetic solubility; [6]) | IC50 [3] | IC50 [4] | microsomal CLint [2] | solubility (Kinetic solubility) |
| --- | --- | --- | --- | --- | --- | --- | --- | --- | --- | --- | --- |
| CC1(F)CCN(c2ccc3nccc(C(=O)NCC(=O)N4CSC[C@H]4C#N)c3c2)CC1 [Example 34, (R)—N-(2-(4-Cyanothiazolidin-3-yl)-2-oxoethyl)-6-(4-fluoro-4-methyl-piperidin-1-yl)quinoline-4-carboxamide] | 33 μL/min/1E6 | 0.000082 s⁻¹ | 2200000 M⁻¹ s⁻¹ | 0.057 nM | 38 µL/min/mg | 0.27 nM | 770 µM (≈ 340 µg/mL) | 0.22 nM | 430 nM | – | – |
| N#C[C@@H]1CSCN1C(=O)CNC(=O)c1ccnc2ccc(N3CCC(F)(F)CC3)cc12 [Example 35, (R)—N-(2-(4-Cyanothiazolidin-3-yl)-2-oxoethyl)-6-(4,4-difluoropiperidin-1-yl)quinoline-4-carboxamide] | 64 μL/min/1E6 | 0.00010 s⁻¹ | 900000 M⁻¹ s⁻¹ | 0.1 nM | 63 µL/min/mg | 0.47 nM | 600 µM (≈ 267 µg/mL) | 0.17 nM | 1700 nM | – | – |
| N#C[C@@H]1CSCN1C(=O)CNC(=O)c1ccnc2ccc(N3CCCC(F)(F)C3)cc12 [Example 36, (R)—N-(2-(4-Cyanothiazolidin-3-yl)-2-oxoethyl)-6-(3,3-difluoropiperidin-1-yl)quinoline-4-carboxamide] | 19 μL/min/1E6 | 0.000090 s⁻¹ | 3000000 M⁻¹ s⁻¹ | 0.053 nM | 48 µL/min/mg | 0.24 nM | < 98 µM | 0.084 nM | 400 nM | – | – |
| N#C[C@@H]1CSCN1C(=O)CNC(=O)c1ccnc2ccc(N3CCCC[C@H]3CF)cc12 [Example 45, N-(2-((R)-4-Cyanothiazolidin-3-yl)-2-oxoethyl)-6-((S)-2-(fluoromethyl)-piperidin-1-yl)quinoline-4-carboxamide] | 160 μL/min/1E6 | 0.00018 s⁻¹ | 5400000 M⁻¹ s⁻¹ | 0.048 nM | 260 µL/min/mg | 0.2 nM | 340 µM (≈ 150 µg/mL) | 0.14 nM | 190 nM | – | – |
| N#C[C@@H]1CSCN1C(=O)CNC(=O)c1ccnc2ccc(N3CCCC4(CC4)C3)cc12 [Example 46, (R)—N-(2-(4-Cyanothiazolidin-3-yl)-2-oxoethyl)-6-(5-azaspiro[2.5]octan-5-yl)quinoline-4-carboxamide] | 72 μL/min/1E6 | 0.000062 s⁻¹ | 3000000 M⁻¹ s⁻¹ | 0.02 nM | – | 0.29 nM | – | 0.082 nM | 110 nM | 190 µL/min/mg | 190 µM (≈ 82.8 µg/mL) |
| CC1(C)CCN(c2ccc3nccc(C(=O)NCC(=O)N4CSC[C@H]4C#N)c3c2)C1 [Example 48, (R)—N-(2-(4-Cyanothiazolidin-3-yl)-2-oxoethyl)-6-(3,3-dimethylpyrrolidin-1-yl)quinoline-4-carboxamide] | 51 μL/min/1E6 | 0.000089 s⁻¹ | 1400000 M⁻¹ s⁻¹ | 0.067 nM | 89 µL/min/mg | 0.29 nM | 18 µM (≈ 7.62 µg/mL) | 0.11 nM | 170 nM | – | – |
| N#C[C@@H]1CSCN1C(=O)CNC(=O)c1ccnc2ccc(N3CCC4(CC4)C3)cc12 [Example 49, (R)—N-(2-(4-Cyanothiazolidin-3-yl)-2-oxoethyl)-6-(5-azaspiro[2.4]heptan-5-yl)quinoline-4-carboxamide] | 48 μL/min/1E6 | 0.00017 s⁻¹ | 8800000 M⁻¹ s⁻¹ | 0.02 nM | – | 0.19 nM | – | 0.041 nM | 340 nM | 58 µL/min/mg | 13 µM (≈ 5.48 µg/mL) |
| N#C[C@@H]1CSCN1C(=O)CNC(=O)c1ccnc2ccc(N3CC[C@@H](F)C3)cc12 [Example 52, N-(2-((R)-4-Cyanothiazolidin-3-yl)-2-oxoethyl)-6-((R)-3-fluoropyrrolidin-1-yl)quinoline-4-carboxamide] | 21 μL/min/1E6 | 0.00019 s⁻¹ | 6800000 M⁻¹ s⁻¹ | 0.044 nM | 22 µL/min/mg | 0.2 nM | 57 µM (≈ 23.6 µg/mL) | 0.045 nM | 400 nM | – | – |
| N#C[C@@H]1CSCN1C(=O)CNC(=O)c1ccnc2ccc(N3CC4CCCC4C3)cc12 (stereo partly drawn) [Example 53, N-(2-((R)-4-Cyanothiazolidin-3-yl)-2-oxoethyl)-6-(hexahydrocyclopenta[c]pyrrol-2(1H)-yl)quinoline-4-carboxamide] | 71 μL/min/1E6 | 0.000050 s⁻¹ | 680000 M⁻¹ s⁻¹ | 0.074 nM | 120 µL/min/mg | 0.27 nM | 2.6 µM (≈ 1.13 µg/mL) | 0.18 nM | 170 nM | – | – |
| C[C@H]1CCN(c2ccc3nccc(C(=O)NCC(=O)N4CSC[C@H]4C#N)c3c2)C1 [Example 54, N-(2-((R)-4-Cyanothiazolidin-3-yl)-2-oxoethyl)-6-((S)-3-methylpyrrolidin-1-yl)quinoline-4-carboxamide] | 49 μL/min/1E6 | 0.00023 s⁻¹ | 6200000 M⁻¹ s⁻¹ | 0.045 nM | 57 µL/min/mg | 0.22 nM | 13 µM (≈ 5.32 µg/mL) | 0.062 nM | 300 nM | – | – |

The next lines start with results.

| rHep CLint [1] | hFAP Binding assay k(off) (hFAP (M39-A757)) | hFAP Binding assay k(on) (hFAP (M39-A757)) | Kd (hFAP (M39-A757)) | microsomal CLint [2, 5] | IC50 (FAP) | solubility (Kinetic solubility; [6]) | IC50 [3] | IC50 [4] | SMILES | microsomal CLint [2] | solubility (Kinetic solubility) |
| --- | --- | --- | --- | --- | --- | --- | --- | --- | --- | --- | --- |
| 14 μL/min/1E6 | 0.00024 s⁻¹ | 9700000 M⁻¹ s⁻¹ | 0.031 nM | 45 µL/min/mg | 0.22 nM | 180 µM (≈ 79.1 µg/mL) | 0.1 nM | 760 nM | N#C[C@@H]1CSCN1C(=O)CNC(=O)c1ccnc2ccc(N3CC(F)(C4CC4)C3)cc12 [Example 31, (R)—N-(2-(4-Cyanothiazolidin-3-yl)-2-oxoethyl)-6-(3-cyclopropyl-3-fluoroazetidin-1-yl)quinoline-4-carboxamide] | – | – |
| 30 μL/min/1E6 | 0.000030 s⁻¹ | 1000000 M⁻¹ s⁻¹ | 0.028 nM | 66 µL/min/mg | 0.22 nM | 210 µM (≈ 95.7 µg/mL) | 0.19 nM | 270 nM | CC1(CF)CCN(c2ccc3nccc(C(=O)NCC(=O)N4CSC[C@H]4C#N)c3c2)CC1 [Example 37, (R)—N-(2-(4-Cyanothiazolidin-3-yl)-2-oxoethyl)-6-(4-(fluoromethyl)-4-methylpiperidin-1-yl)quinoline-4-carboxamide] | – | – |
| 31 μL/min/1E6 | 0.00016 s⁻¹ | 4900000 M⁻¹ s⁻¹ | 0.04 nM | 120 µL/min/mg | 0.28 nM | 22 µM (≈ 10.5 µg/mL) | 0.1 nM | 500 nM | N#C[C@@H]1CSCN1C(=O)CNC(=O)c1ccnc2ccc(N3CCC(C(F)(F)F)CC3)cc12 [Example 39, (R)—N-(2-(4-Cyanothiazolidin-3-yl)-2-oxoethyl)-6-(4-(trifluoromethyl)-piperidin-1-yl)quinoline-4-carboxamide] | – | – |
| 24 μL/min/1E6 | 0.00011 s⁻¹ | 5600000 M⁻¹ s⁻¹ | 0.021 nM | 14 µL/min/mg | 0.21 nM | 56 µM (≈ 23.2 µg/mL) | 0.064 nM | 130 nM | N#C[C@@H]1CSCN1C(=O)CNC(=O)c1ccnc2ccc(N3CC[C@H](F)C3)cc12 [Example 51, N-(2-((R)-4-Cyanothiazolidin-3-yl)-2-oxoethyl)-6-((S)-3-fluoropyrrolidin-1-yl)quinoline-4-carboxamide] | – | – |
| 63 μL/min/1E6 | 0.00025 s⁻¹ | 6700000 M⁻¹ s⁻¹ | 0.036 nM | 55 µL/min/mg | 0.25 nM | 11 µM (≈ 4.5 µg/mL) | 0.083 nM | 440 nM | C[C@@H]1CCN(c2ccc3nccc(C(=O)NCC(=O)N4CSC[C@H]4C#N)c3c2)C1 [Example 55, N-(2-((R)-4-Cyanothiazolidin-3-yl)-2-oxoethyl)-6-((R)-3-methylpyrrolidin-1-yl)quinoline-4-carboxamide] | – | – |
